Measured values published in ChEMBL document CHEMBL1130553, “Covalent binding of catechols to src family SH2 domains” (Bioorg Med Chem Lett, 1997).

Target: T1, Tyrosine-protein kinase Fyn (Homo sapiens, UniProt P06241)
Experiment: Inhibition of peptide EPQ (pY) EEIPI binding to Fyn protein kinase SH2 domain

T1 sequence (P06241 whole entry, the tested form may be a part): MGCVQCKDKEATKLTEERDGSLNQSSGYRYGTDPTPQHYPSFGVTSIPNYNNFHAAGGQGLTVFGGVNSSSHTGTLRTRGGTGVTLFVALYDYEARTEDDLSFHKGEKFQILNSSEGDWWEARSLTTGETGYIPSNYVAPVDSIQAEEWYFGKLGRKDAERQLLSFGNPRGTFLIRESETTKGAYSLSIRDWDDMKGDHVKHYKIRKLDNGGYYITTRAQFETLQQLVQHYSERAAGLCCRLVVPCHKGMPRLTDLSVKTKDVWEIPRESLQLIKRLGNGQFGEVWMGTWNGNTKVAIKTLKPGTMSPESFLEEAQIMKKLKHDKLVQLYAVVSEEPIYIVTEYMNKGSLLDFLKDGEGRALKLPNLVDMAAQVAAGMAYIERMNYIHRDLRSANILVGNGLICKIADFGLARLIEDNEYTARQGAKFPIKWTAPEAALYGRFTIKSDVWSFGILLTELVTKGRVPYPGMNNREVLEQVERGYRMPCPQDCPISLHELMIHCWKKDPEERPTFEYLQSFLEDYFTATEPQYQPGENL

SMILES | IC50
Oc1cc2c(cc1O)CC(NCc1ccccc1)C2 | 10 µM
CCCN(CCC)C1CCc2cc(O)c(O)cc2C1 (centres undefined) | 50 µM
CC1=CC(=O)C(=O)C=C1C | 1 µM
CCCN(CCC)C1Cc2c(O)ccc(O)c2C1 | 50 µM
NC1Cc2cc(O)c(O)cc2C1 | 10 µM
CCCN(CCC)C1Cc2cc(O)c(O)cc2C1 | 10 µM
Oc1cc2c(cc1O)CC(N1CCCCC1)C2 | 10 µM
CCCC1Cc2cc(O)c(O)cc2C1 | 1 µM

Target: T1, Tyrosine-protein kinase Fyn
Experiment: Inhibition of peptide EPQ (pY) EEIPI binding to Fyn protein kinase SH2 domain at 100 uM (no inhibition)

SMILES | IC50
CCCN(CCC)CCc1ccc(O)c(O)c1 | > 100 µM
CCCN(CCC)C1Cc2cc(O)c(OC)cc2C1 (centres undefined) | > 100 µM
CCCN(CCC)C1Cc2ccc(O)cc2C1 (centres undefined) | > 100 µM
CCCN(CCC)C1Cc2cc(O)cc(O)c2C1 (centres undefined) | > 100 µM
NCCc1ccc(O)c(O)c1 [DOPAMINE] | > 100 µM
CCCN(CCC)C1Cc2cc(OC)c(OC)cc2C1 [PNU-99194A] | > 100 µM
